Assay results taken from patent publication US20050112573A1, “Method of detecting toxic substance” (priority 2001, published 2005).

Test system: yeast genes (level of expressed mRNA)
Assay: DNA chip analysis of expressed mRNA of yeast genes after 2 h culture with a toxic chemical substance
Assay type: cell-based, Saccharomyces cerevisiae S288C
Procedure, shortened: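 Values are treated-to-control fluorescence ratios from a whole-yeast-genome DNA chip (65° C, over 12 h hybridization) using Cy3/Cy5-labelled cDNA from mRNA. Log-phase S288C cells in YPD at 25° C were exposed 2 h to a toxicant at sublethal, growth-inhibiting concentration.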

manganese ethylenebis(dithiocarbamate) [(8)]
The level of expressed mRNA in the presence of chemical substance/ (yeast gene YNL074C, ratio to control without chemical substance, 2 h culture): 0.6 | The level of expressed mRNA in the presence of chemical substance/ (yeast gene YNL092W, ratio to control without chemical substance, 2 h culture): 0.9 | The level of expressed mRNA in the presence of chemical substance/The level of expressed mRNA in the absence of chemical substance (yeast gene YNL093W): 0.8 | The level of expressed mRNA in the presence of chemical substance/ (yeast gene YNL115C, ratio to control without chemical substance, 2 h culture): 0.8 | The level of expressed mRNA in the presence of chemical substance/ (yeast gene YNL156C, ratio to control without chemical substance, 2 h culture): 1.2 | The level of expressed mRNA in the presence of chemical substance/ (yeast gene YNL234W, ratio to control without chemical substance, 2 h culture): 1.3 | The level of expressed mRNA in the presence of chemical substance/ (yeast gene YNL281W, ratio to control without chemical): 1.2 | The level of expressed mRNA in the presence of chemical substance/ (yeast gene YNL305C, ratio to control without chemical): 0.7 | The level of expressed mRNA in the presence of chemical substance/The level of expressed mRNA in the absence of chemical substance (yeast gene YNL333W): 2.1 | The level of expressed mRNA in the presence of chemical substance/The level of expressed mRNA in the absence of chemical substance (yeast gene YNR010W): 1.1 | The level of expressed mRNA in the presence of chemical substance/ (yeast gene YNR068C, ratio to control without chemical): 1.1 | The level of expressed mRNA in the presence of chemical substance/The level of expressed mRNA in the absence of chemical substance (yeast gene YNR069C): 1.4 | The level of expressed mRNA in the presence of chemical substance/in the absence of chemical substance (yeast gene YNR072W): 0.9 | The level of expressed mRNA in the presence of chemical substance/The level of expressed mRNA in the absence of chemical substance (yeast gene YOL013C): 1.0 | The level of expressed mRNA in the presence of chemical substance/ (yeast gene YOL032W, ratio to control without chemical): 1.5 | The level of expressed mRNA in the presence of chemical substance/ (yeast gene YOL036W, ratio to control without chemical): 0.8 | The level of expressed mRNA in the presence of chemical substance/ (yeast gene YOL047C, ratio to control without chemical): 1.1 | The level of expressed mRNA in the presence of chemical substance/ (yeast gene YOL071W, ratio to control without chemical): 1.6 | The level of expressed mRNA in the presence of chemical substance/ (yeast gene YOL082W, ratio to control without chemical): 1.1 | The level of expressed mRNA in the presence of chemical substance/ (yeast gene YOL083W, ratio to control without chemical): 1.3 | The level of expressed mRNA in the presence of chemical substance/in the absence of chemical substance (yeast gene YOL096C): 1.0 | The level of expressed mRNA in the presence of chemical substance/ (yeast gene YOL117W, ratio to control without chemical): 1.1 | The level of expressed mRNA in the presence of chemical substance/ (yeast gene YOL131W, ratio to control without chemical): 1.1 | The level of expressed mRNA in the presence of chemical substance/ (yeast gene YOL150C, ratio to control without chemical substance, 2 h culture): 3.7 | The level of expressed mRNA in the presence of chemical substance/ (yeast gene YOL162W, ratio to control without chemical): 1.6 | The level of expressed mRNA in the presence of chemical substance/The level of expressed mRNA in the absence of chemical substance (yeast gene YOL164W): 1.0 | The level of expressed mRNA in the presence of chemical substance/ (yeast gene YOR019W, ratio to control without chemical): 1.1 | The level of expressed mRNA in the presence of chemical substance/The level of expressed mRNA in the absence of chemical substance (yeast gene YOR036W): 1.4 | The level of expressed mRNA in the presence of chemical substance/The level of expressed mRNA in the absence of chemical substance (yeast gene YOR117W): 1.0 | The level of expressed mRNA in the presence of chemical substance/The level of expressed mRNA in the absence of chemical substance (yeast gene YOR124C): 1.3 | The level of expressed mRNA in the presence of chemical substance/The level of expressed mRNA in the absence of chemical substance (yeast gene YOR132W): 1.2 | The level of expressed mRNA in the presence of chemical substance/The level of expressed mRNA in the absence of chemical substance (yeast gene YOR157C): 1.2 | The level of expressed mRNA in the presence of chemical substance/in the absence of chemical substance (yeast gene YOR180C): 0.9 | The level of expressed mRNA in the presence of chemical substance/The level of expressed mRNA in the absence of chemical substance (yeast gene YOR181W): 0.7 | The level of expressed mRNA in the presence of chemical substance/The level of expressed mRNA in the absence of chemical substance (yeast gene YOR185C): 1.4 | The level of expressed mRNA in the presence of chemical substance/ (yeast gene YOR197W, ratio to control without chemical): 0.9 | The level of expressed mRNA in the presence of chemical substance/The level of expressed mRNA in the absence of chemical substance (yeast gene YOR198C): 1.3 | The level of expressed mRNA in the presence of chemical substance/The level of expressed mRNA in the absence of chemical substance (yeast gene YOR259C): 1.1 | The level of expressed mRNA in the presence of chemical substance/The level of expressed mRNA in the absence of chemical substance (yeast gene YOR261C): 2.6 | The level of expressed mRNA in the presence of chemical substance/The level of expressed mRNA in the absence of chemical substance (yeast gene YOR288C): 1.9 | The level of expressed mRNA in the presence of chemical substance/The level of expressed mRNA in the absence of chemical substance (yeast gene YOR355W): 0.8 | The level of expressed mRNA in the presence of chemical substance/in the absence of chemical substance (yeast gene YOR363C): 1.1 | The level of expressed mRNA in the presence of chemical substance/The level of expressed mRNA in the absence of chemical substance (yeast gene YOR383C): 1.0 | The level of expressed mRNA in the presence of chemical substance/ (yeast gene YPL087W, ratio to control without chemical): 1.0 | The level of expressed mRNA in the presence of chemical substance/The level of expressed mRNA in the absence of chemical substance (yeast gene YPL089C): 0.8 | The level of expressed mRNA in the presence of chemical substance/The level of expressed mRNA in the absence of chemical substance (yeast gene YPL109C): 1.1 | The level of expressed mRNA in the presence of chemical substance/The level of expressed mRNA in the absence of chemical substance (yeast gene YPL149W): 1.1 | The level of expressed mRNA in the presence of chemical substance/The level of expressed mRNA in the absence of chemical substance (yeast gene YPL154C): 0.8 | The level of expressed mRNA in the presence of chemical substance/ (yeast gene YPL196W, ratio to control without chemical): 1.2 | The level of expressed mRNA in the presence of chemical substance/ (yeast gene YPL206C, ratio to control without chemical): 1.0 | The level of expressed mRNA in the presence of chemical substance/ (yeast gene YPL222W, ratio to control without chemical): 0.7 | The level of expressed mRNA in the presence of chemical substance/ (yeast gene YPR023C, ratio to control without chemical): 0.9 | The level of expressed mRNA in the presence of chemical substance/The level of expressed mRNA in the absence of chemical substance (yeast gene YPR103W): 1.0 | The level of expressed mRNA in the presence of chemical substance/The level of expressed mRNA in the absence of chemical substance (yeast gene YPR108W): 1.6 | The level of expressed mRNA in the presence of chemical substance/ (yeast gene YPR151C, ratio to control without chemical): 1.4 | The level of expressed mRNA in the presence of chemical substance/in the absence of chemical substance (yeast gene YPR184W): 0.7
